Source: US7985556B2, “Method of screening apoptosis accelerating compound or anti-apoptotic compound and method of determining malignancy of neurodegenerative disease” (Hisamitsu Pharmaceutical Co., Inc., priority 2005, dated 2011)

Legend:
Format in all cases: cell-based, human
[1] = tested on: p21WAF1, phosphorylated p53, p53 and NEDL1 protein expression in SH-SY5Y cells; assay: Expression analysis by Western blotting in cisplatin treated SH-SY5Y cells; conditions: cisplatin 20 μM, total protein
Method: The RT-PCR, Western blotting, immunoprecipitation, luciferase reporter assay and cell fractionation were performed according to the procedure described in Ando et al., J. Biol. Chem., 279: 25549-25561, 2004. Colony formation was performed according to the procedure described in Ozaki et al., Cancer Res., 59: 5902-5907, 1999. Under the same conditions as in Example 1, SH-SY5Y cells were treated with cisplatin and cells were recovered at a prescribed time point, after which the total protein was extracted and the expression of p21^WAF1, phosphorylated p53 (p53 (Ser 15)), p53 and NEDL1 was analyzed by Western blotting. Actin was used as an expression level control.

[2] = tested on: NEDL1 gene expression in SH-SY5Y cells; assay: Expression analysis by RT-PCR in cisplatin treated SH-SY5Y cells; conditions: cisplatin 20 μM, total RNA
Method: The RT-PCR, Western blotting, immunoprecipitation, luciferase reporter assay and cell fractionation were performed according to the procedure described in Ando et al., J. Biol. Chem., 279: 25549-25561, 2004. Colony formation was performed according to the procedure described in Ozaki et al., Cancer Res., 59: 5902-5907, 1999.
Under the same conditions as in Example 1, SH-SY5Y cells were treated with cisplatin and cells were recovered at a prescribed time point, after which the total RNA was extracted and expression of the NEDL1, NEDL2, NEDD4, p21^WAF1 and p53 genes was analyzed by RT-PCR. GAPDH was used as an expression level control.

SH-SY5Y cells = assay: Apoptosis of SH-SY5Y cells by cisplatin treatment (TUNEL staining); conditions: cisplatin final concentration 20 μM
Method: SH-SY5Y cells were cultured in the presence of cisplatin (final concentration: 20 μM). The cells were fixed with paraformaldehyde at prescribed time points after the start of culturing and subjected to TUNEL staining, and the TUNEL-positive cells were counted. […] The extent of cell death by cisplatin was detected.

N.N.[Cl][Pt][Cl] [cisplatin]
Expression of NEDL1 (Western blotting) [1]: induced | Expression of p21WAF1 (Western blotting) [1]: induced | Expression of p53 (Western blotting) [1]: induced | Expression of phosphorylated p53 (p53 (Ser 15)) (Western blotting) [1]: induced | Expression of NEDL1 (RT-PCR) [2]: induced | cell death (TUNEL-positive cells) (SH-SY5Y cells): detected
